Laboratory results from patent US9650616B2, “Methods for increasing grain yield” (University of Florida Research Foundation, Inc., priority 2014, dated 2017).
Changes are numbered by the printed parent chain.

What was measured:
Type in all cases: biochemical
[1] = biological target: T1, maize endosperm AGPase, large subunit variant RGRR (Q96R, D161G, A443R, S444R; numbering of SEQ ID NO: 20) (Zea mays, UniProt P55241+Q84PF5, A443R/D161G/Q96R/S444R); assay: Apparent kinetic constants with 3-PGA, 37° C., RGRR; conditions: read-out: ATP Km
T1 sequence (P55241 46-516 A443R/D161G/Q96R/S444R): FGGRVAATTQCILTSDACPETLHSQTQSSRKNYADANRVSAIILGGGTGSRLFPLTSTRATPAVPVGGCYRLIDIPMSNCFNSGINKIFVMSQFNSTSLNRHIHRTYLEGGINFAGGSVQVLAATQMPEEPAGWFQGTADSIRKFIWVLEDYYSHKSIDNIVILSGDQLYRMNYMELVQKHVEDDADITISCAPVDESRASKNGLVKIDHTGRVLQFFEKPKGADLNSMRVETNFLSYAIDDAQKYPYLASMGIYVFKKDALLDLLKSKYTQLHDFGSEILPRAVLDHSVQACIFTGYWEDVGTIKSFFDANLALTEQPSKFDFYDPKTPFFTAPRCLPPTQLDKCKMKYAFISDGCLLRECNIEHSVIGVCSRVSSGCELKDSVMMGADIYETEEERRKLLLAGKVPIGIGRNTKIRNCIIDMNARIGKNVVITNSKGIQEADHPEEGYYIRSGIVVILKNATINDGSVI
T1 sequence (Q84PF5 1-474): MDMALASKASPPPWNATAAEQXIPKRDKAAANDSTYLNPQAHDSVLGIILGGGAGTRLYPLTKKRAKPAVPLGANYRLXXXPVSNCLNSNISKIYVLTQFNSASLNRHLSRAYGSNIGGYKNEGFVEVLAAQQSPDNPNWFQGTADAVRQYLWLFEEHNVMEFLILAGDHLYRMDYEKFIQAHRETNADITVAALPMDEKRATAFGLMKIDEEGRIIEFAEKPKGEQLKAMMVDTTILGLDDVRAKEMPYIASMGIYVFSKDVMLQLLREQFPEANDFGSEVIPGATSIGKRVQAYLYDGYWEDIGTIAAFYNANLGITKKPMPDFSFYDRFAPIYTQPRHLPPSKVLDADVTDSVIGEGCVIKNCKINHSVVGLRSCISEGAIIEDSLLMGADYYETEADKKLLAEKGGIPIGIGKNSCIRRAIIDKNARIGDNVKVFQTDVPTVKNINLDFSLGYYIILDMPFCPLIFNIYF
From the text: (§1) The small and large subunit plasmids of maize endosperm AGPase (pMONcBt2 and pMONcSh2, respectively) (Giroux et al., 1996) were expressed in E. coli AC70R1-504 cells (Iglesias et al., 1993) as previously described (Boehlein et al., 2008).
(§2) An endpoint assay was used to determine the rate of the AGPase reaction by coupling the formation of PPi to a decrease in NADH concentration (Boehlein et al., 2008). […] The Michaelis constants (Km) were obtained by varying one substrate in the presence of saturating concentrations of the second substrate. The activation constants were obtained by varying the activator at fixed levels of both substrates. All reactions were performed at 37° C. and mixes were prewarmed before starting the reaction with enzyme. […] The absorbance at 340 nm was monitored after 30 min and the amount of PPi produced was determined from a standard curve using PPi in complete reaction mixtures lacking AGPase. Blank samples contained complete reaction mixtures without enzyme and the change in absorbance between the blank and the reaction was used to calculate the amount of PPi produced. […]
(§3) The apparent Michaelis constant and maximum velocity of each reaction was calculated from a V vs. S plots using nonlinear regression analysis and the following equation, v=VmaxS/(Km+S), where v is the measured velocity, Vmax is the maximum velocity, S is the substrate concentration. […]

[2] = biological target: T2, maize endosperm AGPase, large subunit variant GGR (Q96G, D161G, A443R; numbering of SEQ ID NO: 20) (Zea mays, UniProt P55241+Q84PF5, A443R/D161G/Q96G); assay: Apparent kinetic constants with 3-PGA, 37° C., GGR; conditions: read-out: ATP Km
T2 sequence (P55241 46-516 A443R/D161G/Q96G): T1 sequence (P55241 46-516 A443R/D161G/Q96R/S444R) with R51G, R399S
T2 sequence (Q84PF5 1-474): T1 sequence (Q84PF5 1-474)
From the text: as §1, §2, §3

[3] = biological target: T2, maize endosperm AGPase, large subunit variant GGR (Q96G, D161G, A443R; numbering of SEQ ID NO: 20); assay: Pi inhibition in the absence of 3-PGA, GGR
Experimental: Next, the kinetics of the GGR mutant were further investigated by following Pi inhibition in the presence and absence of 3-PGA. Experiments were performed by keeping both substrates constant and non-saturating at several fixed concentrations of Pi.
A similar examination of the Pi inhibition was then followed with GGR in the absence of 3-PGA.

**Q.** Which results are given for `Nc1ncnc2c1ncn2[C@@H]1O[C@H](COP(=O)(O)OP(=O)(O)OP(=O)(O)O)[C@@H](O)[C@H]1O` [ATP]?
**A.** Km [1]: 38 µM; Km [2]: 57 µM; ATP Km, fold lower than wt AGPase ([3]; Pi inhibition assay): approximately 40 fold; Km ([3]; read-out: Km (ATP), ATP varied, Pi inhibition, NC): 540 µM
